US20240400606A1, “SMALL MOLECULE ACTIVATORS OF THE IMMUNE SYSTEM” (THE BOARD OF TRUSTEES OF THE UNIVERSITY OF ILLINOIS, priority 2021, published 2024)

Tested on: STS and SULT2B1b levels in T47D
Test: Western blot of STS and SULT2B1b after treatment, T47D
Type: cell-based
Details: 6.25 μM, 72 hours
Description: Western Blot Analysis. Cells were lysed using RIPA buffer containing phosphatase (BioVision) and protease inhibitor cocktail (Calbiochem). Protein concentrations were determined using the BCA assay (Pierce). Lysates containing 15 μg of protein were loaded onto 4-20% gradient gels (BioRad), and SDS-PAGE was run. Proteins were then transferred onto membrane (PVDF Millipore) for Western Blot analysis. Blots were blocked with BSA solution (2 g in 40 mL TBST) for one hour followed by primary antibody addition and incubation overnight (using manufacturer's recommended dilutions). Following overnight incubation, blots were washed with TBST, and incubated with HRP-linked secondary antibody for 1 hour in TBST. Blots were washed, then imaged with ChemiDoc after incubation with SuperSignal West Pico Solution following manufacturer's procedures.

SMILES: C[C@]12CCC(=O)N(Cc3ccc(Br)cc3)C1=CC[C@@H]1[C@@H]2C(=O)C[C@]2(C)C(=O)CC[C@@H]12 [Compound 3, (4aR,4bS,6aS,9aS,9bS)-1-(4-bromobenzyl)-4a,6a-dimethyl-3,4,4a,6,6a,8,9,9a,9b,10-decahydro-1H-indeno[5,4-f]quinoline-2,5,7(4bH)-trione]
- STS and SULT2B1b levels after treatment: unchanged
